In PubChem BioAssay AID1259407 (Chemical Carcinogenesis Research Information System (CCRIS), 2018):
The source made the active and inactive calls. No rule for the calls is given here.

Tested on: CCRIS mutagenicity, Ames/micronucleus/aberration tests
Experiment: CCRIS mutagenicity studies
[1] = Test System: AMES SALMONELLA TYPHIMURIUM, Strain/Indicator: TA100, Metabolic Activation: NONE, Method: STANDARD PLATE
[2] = Test System: AMES SALMONELLA TYPHIMURIUM, Strain/Indicator: TA100, Metabolic Activation: RAT, LIVER, S-9, AROCLOR 1254, Method: STANDARD PLATE

COCC(=O)N(c1c(C)cccc1C)C(C)C(=O)OC (stereo not given)
mutagenic call (End Point: In vitro micronucleus, Test System: Human lymphocytes, Metabolic Activation: None): inactive; negative (positive only at 50 ug/ml dose) | mutagenic call (End Point: In vivo micronucleus, Test System: Bone marrow polychromatic erythrocytes, Species: Rat, Strain/Sex: Wistar/Male, Route: Oral): active; positive (at high dose)

c1cncc(C2=NCCC2)c1
mutagenic call (End Point: Lymphocytes, Strain/Indicator: Human (male and female) (HPRT)/6-Thioguanine, Metabolic Activation: None): active; positive (p=0.038)

CC(C)COC(=O)Cc1ccccc1
mutagenic call (Test System: AMES SALMONELLA TYPHIMURIUM, Strain/Indicator: TA97, Metabolic Activation: NONE, Method: PREINCUBATION): inactive; negative | mutagenic call (Test System: AMES SALMONELLA TYPHIMURIUM, Strain/Indicator: TA97, Metabolic Activation: RAT, LIVER, S-9, AROCLOR 1254, Method: PREINCUBATION): inactive; negative | mutagenic call (Test System: AMES SALMONELLA TYPHIMURIUM, Strain/Indicator: TA102, Metabolic Activation: NONE, Method: PREINCUBATION): inactive; negative | mutagenic call (Test System: AMES SALMONELLA TYPHIMURIUM, Strain/Indicator: TA102, Metabolic Activation: RAT, LIVER, S-9, AROCLOR 1254, Method: PREINCUBATION): inactive; negative

NNC(N)=O
mutagenic call (End Point: IN VIVO MICRONUCLEUS, Test System: POLYCHROMATIC ERYTHROCYTES, Species: MOUSE, Strain/Sex: BALB/C/MALE, Route: IP INJECTION): inactive; negative | mutagenic call (End Point: IN VIVO MICRONUCLEUS, Test System: POLYCHROMATIC ERYTHROCYTES, Species: MOUSE, Strain/Sex: CBA/MALE, Route: IP INJECTION): inactive; negative

Nc1nc2c(s1)CC[C@@H]1NCCC[C@@H]21
mutagenic call (Test System: AMES SALMONELLA TYPHIMURIUM, Strain/Indicator: TA1538, Metabolic Activation: RAT, LIVER, S-9, AROCLOR 1254, Method: STANDARD PLATE): inactive; negative

CC(C)COS(C)(=O)=O
mutagenic call (End Point: IN VITRO MICRONUCLEUS, Test System: MOUSE LYMPHOMA L5178Y CELLS, Metabolic Activation: NONE): inactive; negative; significant increase at highly/excessively cytotoxic doses | mutagenic call (End Point: IN VITRO MICRONUCLEUS, Test System: MOUSE LYMPHOMA L5178Y CELLS, Metabolic Activation: RAT, LIVER, S-9): inactive; negative | mutagenic call [1]: active; positive | mutagenic call (Test System: AMES SALMONELLA TYPHIMURIUM, Strain/Indicator: TA100, Metabolic Activation: RAT, LIVER, S-9, Method: STANDARD PLATE): active; positive

O=C1c2ccccc2-c2c1ccc1ccc3ccccc3c21
mutagenic call [2]: inactive; negative

Cc1ccccc1OCC(O)CNCCOc1ccc(C(N)=O)cc1 (stereo not given)
mutagenic call (Test System: AMES SALMONELLA TYPHIMURIUM, Strain/Indicator: TA98, Metabolic Activation: NONE, Method: STANDARD PLATE): inactive; negative | mutagenic call (Test System: AMES SALMONELLA TYPHIMURIUM, Strain/Indicator: TA98, Metabolic Activation: RAT, LIVER, S-9, AROCLOR 1254, Method: STANDARD PLATE): inactive; negative | mutagenic call [1]: inactive; negative | mutagenic call [2]: inactive; negative

CC(C)C#N
mutagenic call (End Point: In vitro chromosomal aberrations, Test System: Chinese hamster lung (CHL/IU) cells, Metabolic Activation: Rat, Liver, S9, Phenobarbital and 5,6-benzoflavone): inactive; negative | mutagenic call (Test System: Ames Salmonella typhimurium, Strain/Indicator: TA100, Metabolic Activation: None, Method: Preincubation): active; positive | mutagenic call (Test System: Ames Salmonella typhimurium, Strain/Indicator: TA100, Metabolic Activation: Rat, Liver, S9, Sodium phenobarbital and 5,6-benzoflavone (10%), Method: Preincubation): active; positive | mutagenic call (Test System: Ames Salmonella typhimurium, Strain/Indicator: TA1535, Metabolic Activation: None, Method: Preincubation): inactive; negative | mutagenic call (Test System: Ames Salmonella typhimurium, Strain/Indicator: TA1537, Metabolic Activation: None, Method: Preincubation): active; positive | mutagenic call (Test System: E. coli, Strain/Indicator: WP2uvrA/pKM101, Metabolic Activation: None, Method: Preincubation): active; positive | mutagenic call (Test System: E. coli, Strain/Indicator: WP2uvrA/pKM101, Metabolic Activation: Rat, Liver, S9, Sodium phenobarbital and 5,6-benzoflavone (10%), Method: Preincubation): active; positive

CC(C)CCC[C@@H](C)[C@H]1CC[C@H]2[C@@H]3C[C@@H]4N(N5C(=O)c6ccccc6C5=O)[C@@]45C[C@@H](Cl)CC[C@]5(C)[C@H]3CC[C@]12C (stereo not given in full)
mutagenic call (Test System: AMES SALMONELLA TYPHIMURIUM, Strain/Indicator: TA97A, Metabolic Activation: NONE, Method: STANDARD PLATE): inactive; negative | mutagenic call [1]: inactive; negative | mutagenic call (Test System: AMES SALMONELLA TYPHIMURIUM, Strain/Indicator: TA102, Metabolic Activation: NONE, Method: STANDARD PLATE): inactive; negative | mutagenic call (Test System: AMES SALMONELLA TYPHIMURIUM, Strain/Indicator: TA104, Metabolic Activation: NONE, Method: STANDARD PLATE): inactive; negative
